Assay results: paper PMC11766569, “Novel Insights into the Nobilamide Family from a Deep-Sea Bacillus: Chemical Diversity, Biosynthesis and Antimicrobial Activity Towards Multidrug-Resistant Bacteria” (Marine Drugs, 2025)
Converted amounts (≈) assume the structure as drawn. Where two headings read alike, the source gives them in different places. Marks after values point to notes of the source that are not given here. Values belong to the compound of their own block, whether it stands above or below them. Bridge positions count the residues as written; N and C are the ends. Square brackets hold non-standard residues; d marks the D form. Peptide text beside a SMILES is read from it. d(aThr) = C[C@@H](O)[C@@H](N)C(=O)O; Dhb = C/C=C(\N)C(=O)O

Columns and labels:
[1] = test system: S. aureus vancomycin-resistant; experiment: Liquid inhibition assay (MIC); format: cell-based, Staphylococcus aureus; settings: vancomycin-resistant S. aureus (VRSA), 96-well, MH medium, ~5 × 10^4 CFU/well, 18 h at 37 °C, absorbance at 600 nm
Protocol: (§1) To evaluate the antimicrobial potential of all samples, the MICs for E. coli ATCC® 10536™, S. aureus ATCC® 6538™, S. aureus ATCC® 6538p™, methicillin-resistant S. aureus (MRSA), macrolide-resistant S. aureus ([…]), quinolone-resistant S. aureus (QRSA), vancomycin-resistant S. aureus (VRSA), S. epidermidis RP206 [7], S. xylosus MB 5209 [77] were determined by the liquid inhibition assay. Briefly, the bacterial strains were inoculated in 3 mL of liquid Mueller–Hinton broth (MHB) (HiMedia, Einhausen, Germany) in sterile bacteriological tubes and incubated in agitation at 37 °C until they reached the turbidity of 0.5 McFarland. Different from the remaining pathogens, L. monocytogenes MB 677 [79] was diluted in the Trypticasein soy broth (TSB) medium with an additional 0.6% yeast extract. Finally, serial dilutions of the inoculum were performed to obtain a final bacterial concentration of about 5 × 10^5 CFU/mL. Then, 4 µL of each sample was added into a 96-well microtiter plate containing 200 µL of MH medium. After being serially diluted using MH medium, 100 µL of bacterial suspension was inoculated into the broth (~5 × 10^4 CFU/well) and incubated statically for 18 h at 37 °C. DMSO was used as a control to determine the effect of solvent on cell growth. Vancomycin, erythromycin, and ampicillin were used as positive controls.

L. monocytogenes 677 = experiment: microbe, parasite or virus in culture; format: cell-based, Listeria monocytogenes
Protocol: as §1

[2] = test system: S. aureus methicillin-resistant; experiment: microbe, parasite or virus in culture; format: cell-based, Staphylococcus aureus
Protocol: as §1

S. aureus 6538 = experiment: microbe, parasite or virus in culture; format: cell-based, Staphylococcus aureus
Protocol: as §1

S. aureus 6538p = experiment: microbe, parasite or virus in culture; format: cell-based, Staphylococcus aureus
Protocol: as §1

[3] = test system: S. aureus quinolone-resistant; experiment: microbe, parasite or virus in culture; format: cell-based, Staphylococcus aureus
Protocol: as §1

[4] = test system: S. aureus macrolide-resistant; experiment: microbe, parasite or virus in culture; format: cell-based, Staphylococcus aureus
Protocol: as §1

S. xilosus MB5209 = experiment: microbe, parasite or virus in culture; format: cell-based, S. xylosus
Protocol: as §1

S. epidermidis RP206 = format: cell-based; settings: RP206, 18 h
Protocol: as §1

E. coli ATCC 10536 = experiment: Liquid inhibition assay (MIC); format: cell-based, Escherichia coli; settings: Gram-negative E. coli ATCC 10536
Protocol: as §1

MIC ([1]; Staphylococcus aureus, read-out: MIC): 1 µg/mL (≈ 1.36 µM) | MIC [1]: 1 ^b μg/mL
SMILES: CC[C@H]1OC(=O)[C@H](C)[C@@H](O[C@H]2C[C@@](C)(OC)[C@@H](O)[C@H](C)O2)[C@H](C)[C@@H](O[C@@H]2O[C@H](C)C[C@H](N(C)C)[C@H]2O)[C@](C)(O)C[C@@H](C)C(=O)[C@H](C)[C@@H](O)[C@]1(C)O [erythromycin]

MIC (L. monocytogenes 677; L. monocytogenes 677, diluted in TSB with 0.6% yeast extract, 18 h at 37 °C, absorbance at 600 nm): 1 ^c μg/mL | MIC (L. monocytogenes 677; Listeria monocytogenes, 677, 18 h): 1 µg/mL (≈ 2.86 µM)
SMILES: CC1(C)S[C@@H]2[C@H](NC(=O)[C@H](N)c3ccccc3)C(=O)N2[C@H]1C(=O)O [ampicillin]

SMILES: CN[C@H](CC(C)C)C(=O)N[C@H]1C(=O)N[C@@H](CC(N)=O)C(=O)N[C@H]2C(=O)N[C@H]3C(=O)N[C@H](C(=O)N[C@H](C(=O)O)c4cc(O)cc(O)c4-c4cc3ccc4O)[C@H](O)c3ccc(c(Cl)c3)Oc3cc2cc(c3O[C@@H]2O[C@H](CO)[C@@H](O)[C@H](O)[C@H]2O[C@H]2C[C@](C)(N)[C@H](O)[C@H](C)O2)Oc2ccc(cc2Cl)[C@H]1O [Vancomycin]
MIC ([2]; Staphylococcus aureus, 18 h): 0.5 µg/mL (≈ 0.345 µM) | MIC ([2]; methicillin-resistant S. aureus, 96-well, MH medium, ~5 × 10^4 CFU/well, 18 h at 37 °C, absorbance at 600 nm): 0.5 ^a μg/mL | MIC (S. aureus 6538; S. aureus 6538, 96-well, MH medium, ~5 × 10^4 CFU/well, 18 h at 37 °C, absorbance at 600 nm): 0.5 ^a μg/mL | MIC (S. aureus 6538; Staphylococcus aureus, 6538, 18 h): 0.5 µg/mL (≈ 0.345 µM) | MIC (S. aureus 6538p; S. aureus 6538p, 96-well, MH medium, ~5 × 10^4 CFU/well, 18 h at 37 °C, absorbance at 600 nm, lowest concentration that completely inhibited growth): 1 ^a μg/mL | MIC (S. aureus 6538p; Staphylococcus aureus, 6538P, 18 h): 1 µg/mL (≈ 0.69 µM) | MIC ([3]; Staphylococcus aureus, 18 h): 0.5 µg/mL (≈ 0.345 µM) | MIC ([3]; quinolone-resistant S. aureus, 96-well, MH medium, ~5 × 10^4 CFU/well, 18 h at 37 °C, absorbance at 600 nm): 0.5 ^a μg/mL | MIC ([4]; Staphylococcus aureus, 18 h): 0.5 µg/mL (≈ 0.345 µM) | MIC ([4]; macrolide-resistant S. aureus, 96-well, MH medium, ~5 × 10^4 CFU/well, 18 h at 37 °C, absorbance at 600 nm): 0.5 ^a μg/mL | MIC (S. xilosus MB5209; S. xilosus MB5209, 96-well, MH medium, ~5 × 10^4 CFU/well, 18 h at 37 °C, absorbance at 600 nm): 0.5 ^a μg/mL | MIC (S. xilosus MB5209; Staphylococcus xylosus, MB5209, 18 h): 0.5 µg/mL (≈ 0.345 µM)

MIC (L. monocytogenes 677; 677, 18 h): 0.24 µg/mL (≈ 0.299 µM) | MIC (S. epidermidis RP206): 7.8 µg/mL (≈ 9.7 µM) | MIC ([2]; methicillin-resistant, 18 h): 3.9 µg/mL (≈ 4.85 µM) | MIC (S. aureus 6538; 6538, 18 h): 0.24 µg/mL (≈ 0.299 µM) | MIC (S. aureus 6538p; 6538p, 18 h): 0.24 µg/mL (≈ 0.299 µM) | MIC ([3]; quinolone-resistant, 18 h): 0.9 µg/mL (≈ 1.12 µM) | MIC ([4]; macrolide-resistant, 18 h): 1.9 µg/mL (≈ 2.36 µM) | MIC (S. xilosus MB5209; 18 h): 7.8 µg/mL (≈ 9.7 µM)
SMILES: C/C=C1\NC(=O)[C@H](C)NC(=O)[C@H](C(C)C)NC(=O)[C@H](NC(=O)[C@H](Cc2ccccc2)NC(=O)[C@@H](CC(C)C)NC(=O)[C@@H](Cc2ccccc2)NC(C)=O)[C@@H](C)OC1=O [TL-119] (Ac-[dF][dL]F[d(aThr)]VA[Dhb]; ester 4-C)
antibacterial activity (in words) (E. coli ATCC 10536): lack of antibacterial activity
